# Measurements: US20250195432A1, “METHODS FOR PREPARING AND CHARACTERIZING ZEIN-FUCOIDAN CONJUGATED NANO-LIPOSOME FOR PHYTOL ENCAPSULATION” (Zhejiang Academy of Forestry, priority 2023, published 2025)
# Key:
# [1] = Photostability under UV light, phytol retention by GC-MS; type: physicochemical; settings: after 16 hours of UV exposure; free phytol in ethanol
# Protocol: • exposing a sample to ultraviolet (UV) light for various irradiation durations: […], 90 minutes, 120 minutes, 150 minutes, 180 minutes, 210 minutes, 240 minutes, 270 minutes, […]; and determining retention of phytol content using GC-MS.
# To assess the photostability of phytol loaded in nanoparticles (P-ZF, P-NL, and P-NL-ZF) as well as free phytol dissolved in ethanol, samples were irradiated under UV light for various durations: […], 90 minutes, 120 minutes, 150 minutes, 180 minutes, 210 minutes, 240 minutes, 270 minutes, […] The content of retained phytol was determined using GC-MS as described in Section 2.5.2. The calculation formula for retention rate is given as follows: […]
# [2] = Hydroxyl radical scavenging activity; type: biochemical; settings: 37° C., 30 minutes, absorbance 536 nm
# Protocol: • mixing 1.00 mL of the nanoliposomes with 1.00 mL of 9.00 mmol/L salicylic acid ethanol solution, 1.00 mL of 9.00 mmol/L FeCl2, and 1.00 mL of 8.80 mmol/L H2O2; incubating a resulting mixture in the dark at 37° C. for 30 minutes; measuring an absorbance of a reaction mixture at 536 nm using a multifunctional microplate reader and calculating a hydroxyl radical scavenging rate;
# A sample of the nanoliposome (1.00 mL) was mixed with an ethanol solution of salicylic acid (1.00 mL, 9.00 mmol/L), FeCl2 (1.00 mL, 9.00 mmol/L), and H2O2(1.00 mL, 8.80 mmol/L) and incubated in the dark at 37° C. for 30 minutes. The absorbance of the reaction mixture was measured at 536 nm using a multifunctional microplate reader (Varioskan Flash, Thermo Fisher Scientific, Massachusetts, USA). The hydroxyl radical scavenging rate was calculated using the following formula: […]
# HepG2 cells [3] = experiment: Intracellular ROS level (DCFH-DA) in HepG2 cells with TBHP-induced oxidative damage; type: cell-based, human; settings: for ROS level (percentage of the negative control group): HepG2, pre-treatment 100 μg/mL phytol 24 h, then TBHP (10 μg/mL)
# Protocol: • […], P-ZF, P-NL, and P-NL-ZF to the plate for another 24 hours of incubation; […]; measuring a cell survival rate, an intracellular reactive oxygen species (ROS) level, malondialdehyde (MDA) content, and superoxide dismutase (SOD) activity.
# (§1) • placing the digested HepG2 cells in a culture dish and performing a treatment as in step (O); adding 10.00 μM 2′,7′-dichlorodihydrofluorescein diacetate (DCFH-DA) and incubating for 0.5 hours, followed by washing with PBS (pH 7.4); allowing intracellular esterase to cleave the DCFH-DA, which is then oxidized to highly fluorescent dichlorofluorescein in the presence of ROS; measuring a fluorescence intensity of the 96-well plate using a multifunctional microplate reader at an excitation wavelength of 485 nm and an emission wavelength of 528 nm, expressing the intracellular ROS level as a percentage of the negative control group; • assessing the SOD activity and the MDA content by culturing the digested HepG2 cells for 24 hours; after the treatment as in step (O), adding 300 μL of lysis buffer and incubating on ice for 30 minutes; centrifuging at 11,000×g for 5 minutes at 4° C. and collecting a resulting supernatant; and quantifying the SOD activity and the MDA content according to instructions of SOD and MDA assay kits; and
# • seeding the digested cells at a density of 3×10^5 cells per well into a 6-well plate and incubating for 24 hours; after incubation, aspirating a culture medium and continuing with the grouping and treatment as in step (0); after 24 hours, replacing an original solution with 25 μM DCFH-DA solution and incubating for 60 minutes; washing the cells twice with PBS to remove unabsorbed probes; observing a fluorescence generated within the cells by placing the 6-well plate under a fluorescence microscope equipped with an FITC fluorescence channel.
# HepG2 cells, after digestion, were seeded at a density of 1×10^5 cells/well in a 96-well cell culture plate and were placed in a cell culture incubator. […]
# HepG2 cells [4] = experiment: SOD activity in HepG2 cells with TBHP-induced oxidative damage; type: cell-based, human; settings: HepG2, TBHP (10 μg/mL)
# Protocol: (§2) • culturing the digested HepG2 cells for 24 hours and then adding […] concentrations of PHY, P-ZF, P-NL, and P-NL-ZF to the plate for another 24 hours of incubation; […]; measuring a cell survival rate, an intracellular reactive oxygen species (ROS) level, malondialdehyde (MDA) content, and superoxide dismutase (SOD) activity.
# as §1, with “kits; and […]” for “kits; and”
# HepG2 cells [5] = experiment: TBHP-induced oxidative damage concentration, cell viability by CCK-8; type: cell-based, human; settings: HepG2, TBHP 10 μg/mL, 24 hours
# Protocol: HepG2 cells, after digestion, were seeded at a density of 1×10^5 cells/well in a 96-well cell culture plate and were incubated in a cell culture incubator. […] After 24 hours of incubation, the culture medium was removed, and the working solutions of TBHP at different concentrations were added to the wells, followed by an additional 24 hours of incubation. After the incubation period, the vitality of the HepG2 cells was assessed using the CCK-8 method, as detailed in section 2.6.4.
# HepG2 cells [6] = experiment: MDA content in HepG2 cells with TBHP-induced oxidative damage; type: cell-based, human; settings: HepG2, TBHP (10 μg/mL)
# Protocol: as §2
# as §1, with “kits; and […]” for “kits; and”
Compound,retention rate of phytol under UV [1],scavenging capability against •OH radicals [2],"reduction of ROS level compared to the positive control (328.16%) (HepG2 cells [3]; HepG2, TBHP (10 μg/mL))",ROS level (percentage of the negative control group) (HepG2 cells [3]),SOD activity (HepG2 cells [4]),cell viability (HepG2 cells [5]),MDA level (lipid peroxidation) (HepG2 cells [6])
"(2E,3,7R,11R,15)-tetramethyl-hexadecen-1-ol [PHY]",1.21%,40%,97.44%,230.72%,11.61 U/mg protein,–,–
"CC(C)(C)OO [TBHP, Tert-Butyl Hydrogen Peroxide]",–,–,–,328.42%,8.43 U/mg protein,65.67%,significant increase in MDA
